Test results reported in US10736909B2, “Use of trehalose for treatment of neurological diseases” (JUNAXO, INC., priority 2016, dated 2020).
“And” between values parts separate entries of the source, which are not always exact repeats. Equal entries are not always repeated. “Also recorded” adds a separate entry of the source. Where two headings read alike, the source gives them in different places.

Assays:
[1] = tested on: MPTP-lesioned mouse; conditions: 2% trehalose in drinking water; Sarkar et al. 2014; cited from earlier work
[2] = Plasma and brain pharmacokinetics in rats, 1 and 7 days oral administration; assay type: in vivo, Sprague-Dawley rats; conditions: for AUC(0-t): read-out: AUC0-12h
Method: One hundred Sprague-Dawley rats (200-260 g), female (60) and male (40), received trehalose (2.67 g/kg/day, oral gavage in sterile water) for 1 or 7 days. Groups of 5 rats (3 female, 2 male) were sacrificed at pre-dose and 15 min, 30 min, 1 h, 1.5 h, 2 h, 3 h, 4 h, 8 h and 12 h post-dose on days 1 and 7 and plasma and brain samples collected. Plasma and brain samples were analysed for trehalose levels using a validated LC-MS/MS method and plasma exposure timecourses (FIG. 1) and pharmacokinetic parameters were calculated (Table 6). Brain levels of trehalose were approximately 1% of plasma levels at all time-points (FIG. 1).

[3] = tested on: Chronic MPTP-lesioned mouse; conditions: 1% in the drinking water; Ferguson et al. 2015; cited from earlier work
[4] = Brain and CSF trehalose levels in macaques after two days administration; assay type: in vivo; conditions: female, macaque, oral; for concentration at 1 h: 2.67 g/kg for two days
Method: In a subsequent step, the same 3 macaques were administered trehalose (2.67 g/kg) for two days. The macaques were then killed 1 h post-administration on day 2 and terminal brain and CSF samples collected. The brain and CSF trehalose levels were 81.3±13.8 ng/g and 562±346.5 ng/ml respectively. Similar to rats, trehalose levels in macaque brain tissue were ˜1% of the plasma level at the corresponding timepoint.

[5] = tested on: Rotenone-lesioned rat; conditions: 2% trehalose in drinking water; Wu et al. 2015; cited from earlier work
[6] = Plasma and brain trehalose levels 30 min post-dose in rat efficacy study (LC-MS/MS); assay type: in vivo, Sprague-Dawley rats; conditions: rats; for concentration at 30 min: Sprague-Dawley, rat
Method: Animal behavior was assessed pre-surgery and at 3 and 6 weeks post-surgery. Behaviour was assessed by the cylinder test to assess forelimb asymmetry with asymmetry indicating an imbalance in striatal dopaminergic function between the side injected with AAV1/2 αSYN and the contralateral side. Compounds that normalize the forelimb asymmetry are potentially useful for treating PD. After 6 weeks of trehalose treatment, the animals were killed approximately 30 mins after the last administration of trehalose. Striatal tissue from both hemispheres was collected and analysed for dopamine levels. Substantia nigra tissue was collected and analysed for the number of TH^+ve cells and the amount of A53T αSYN measured. Plasma and brain (cerebellum) samples were collected and trehalose levels analysed by LC-MS/MS.
When the animals were killed 30 mins post trehalose administration plasma and brain samples were collected (rats in the 0.89 g/kg/day group only received one dose of trehalose (0.89 g/kg) on this day). This time corresponds to approximately the Tmax of orally administered trehalose. […] Trehalose was measurable in the plasma 30 mins after receiving trehalose (0.89 or 2.67 g/kg) by oral gavage (Table 5). A 3-fold increase in the trehalose dose (0.89 g/kg to 2.67 g/kg) lead to an ˜6-fold increase in the trehalose plasma level, i.e. that increasing the dose produced a greater than dose-proportional increase in trehalose exposure. […] Trehalose was measurable in the brains of rats receiving trehalose (2.67 g/kg) by oral gavage (Table 5).
To better understand why administrating the same amount of trehalose by different routes led to differences in efficacy, studies were conducted to measure blood and brain levels of trehalose following administration of trehalose by 2% in the drinking water, three (3) times daily (0.89 g/kg each dose) and once daily (2.67 g/kg/day).

[7] = tested on: α-synuclein (αSYN); conditions: rodent models of PD; Tanji et al., He et al., Wu et al. 2015; cited from earlier work
[8] = Plasma pharmacokinetics in macaques, 1 and 7 days oral administration; assay type: in vivo; conditions: for AUC(0-inf) / Cmax / Tmax / half-life / AUC(0-t): female, monkey, plasma, po, macaque plasma; for AUC(0-t): read-out: AUC0-24h
Method: Three female macaques (3.81-4.67 kg) received trehalose (2.67 and 5.34 g/kg/day, oral gavage in sterile water) for 7 days. Plasma samples were collected pre-dose and 15 min, 30 min, 1 h, 2 h, 4 h, 6 h, 12 h and 24 h post-dose on days 1 and 7 and analysed for trehalose levels using a validated LC-MS/MS method and plasma exposure time courses (FIG. 2) and pharmacokinetic parameters were calculated (Table 7).

[9] = both sexes, Sprague-Dawley, po, rat brain, Day 1, 2.67 g/kg p.o.
[10] = both sexes, Sprague-Dawley, po, rat brain, Day 7, 2.67 g/kg/day p.o.
[11] = both sexes, Sprague-Dawley, po, rat plasma, Day 1, 2.67 g/kg p.o.
[12] = both sexes, Sprague-Dawley, po, rat plasma, Day 7, 2.67 g/kg/day p.o.
[13] = 2.67 g/kg/day, 2.67 g/kg/day p.o., Day 1
[14] = 2.67 g/kg/day, 2.67 g/kg/day p.o., Day 7
[15] = 5.34 g/kg/day, 5.34 g/kg/day p.o., Day 1
[16] = 5.34 g/kg/day, 5.34 g/kg/day p.o., Day 7

In the case of `OC[C@H]1O[C@H](O[C@H]2O[C@H](CO)[C@@H](O)[C@H](O)[C@H]2O)[C@H](O)[C@@H](O)[C@@H]1O` [trehalose, (2R,3S,4S,5R,6R)-2-(Hydroxymethyl)-6-[(2R,3R,4S,5S,6R)-3,4,5-trihydroxy-6-(hydroxymethyl)oxan-2-yl]oxyoxane-3,4,5-triol], the Effect [1] is given as “Neuroprotection”, the AUC(0-inf) [2, 9] is given as 97 ng·h/mL and the Cmax [2, 9] is given as 87 ng/mL. The Tmax [2, 9] was 15 min, the half-life [2, 9] was 48.6 min and the AUC(0-t) [2, 9] was 86.8 ng·h/mL. It also gave an AUC(0-inf) [2, 10] of 76.2 ng·h/mL, a Cmax [2, 10] of 73 ng/mL and a Tmax [2, 10] of 15 min. The half-life [2, 10] was 63.6 min, the AUC(0-t) [2, 10] was 65.3 ng·h/mL and the AUC(0-inf) [2, 11] was 11100 ng·h/mL. The Cmax [2, 11] was 8900 ng/mL, the Tmax [2, 11] was 15 min and the half-life [2, 11] was 45.6 min. For the same molecule, the AUC(0-t) [2, 11] was 10900 ng·h/mL, the AUC(0-inf) [2, 12] was 9880 ng·h/mL and the Cmax [2, 12] was 8340 ng/mL. The Tmax [2, 12] was 15 min, the half-life [2, 12] was 53.4 min and the AUC(0-t) [2, 12] was 9490 ng·h/mL. For the same molecule, the Kp ([2]; both sexes, Sprague-Dawley, rat, brain, po, rats, 2.67 g/kg/day p.o., all time-points, read-out: Brain levels of trehalose as % of plasma levels) was about 0.01, the “trehalose in plasma or brain 8 h post-dose” value ([2]; rats, 2.67 g/kg/day p.o., 8 h post-dose) was “no longer detectable; also recorded: No trehalose is found” and the “Effect (behavioural)” value [3] was “No behavioural”. For the same molecule, the “Effect on dopamine levels” value [3] was “effect. Some”, the concentration at 1 h ([4]; CSF, 1 h post-administration on day 2, read-out: CSF trehalose level) was 562 ± 346 ng/mL and the concentration at 1 h ([4]; brain, 1 h post-administration on day 2, read-out: brain trehalose level) was 81.3 ± 13.8 ng/g. The Kp at 1 h ([4]; brain, 2.67 g/kg, corresponding timepoint (1 h), read-out: brain trehalose level as % of plasma level) was about 0.01, the Effect [5] was “Neuroprotection” and the concentration at 30 min ([6]; brain (cerebellum), cerebellum, 2.67 g/kg once daily oral gavage, 30 min post-dose, read-out: Brain trehalose level) was 52.8 ± 16.9 ng/mL. For the same molecule, the concentration at 30 min ([6]; plasma, 0.89 g/kg 3 times daily oral gavage, 30 min after one 0.89 g/kg dose, read-out: Plasma trehalose level) was 1130 ± 178 ng/mL, the concentration at 30 min ([6]; plasma, 2.67 g/kg once daily oral gavage, 30 min post-dose, read-out: Plasma trehalose level) was 6380 ± 890 ng/mL and the Brain trehalose level ([6]; cerebellum, 0.89 g/kg 3 times daily oral gavage, 30 min after one 0.89 g/kg dose) was “below the limit of detection and BLQ”. For the same molecule, the Brain trehalose level ([6]; cerebellum, 2% in drinking water) was “below the limit of detection and BLQ”, the Brain trehalose level ([6]; cerebellum, 2.67 g/kg once daily oral gavage, 30 min post-dose) was “measurable” and the Plasma trehalose level ([6]; 0.89 g/kg 3 times daily oral gavage, 30 min after one 0.89 g/kg dose) was “measurable”. For the same molecule, the “increase in trehalose plasma level on 3-fold increase in dose” value ([6]; 0.89 g/kg to 2.67 g/kg, 30 min post-dose) was 6 fold and 5.6 fold, the Plasma trehalose level ([6]; 2% in drinking water, 6 weeks) was “below the limit of quantification and BLQ” and the Plasma trehalose level ([6]; 2.67 g/kg once daily oral gavage, 30 min post-dose) was “measurable”. For the same molecule, the “levels of α-synuclein (αSYN)” value [7] was “reduces”, the AUC(0-inf) [8, 13] was 27400 ng·h/mL and the Cmax [8, 13] was 10900 ng/mL. The Tmax [8, 13] was 49.8 min, the half-life [8, 13] was 66 min and the AUC(0-t) [8, 13] was 26700 ng·h/mL. For the same molecule, the AUC(0-inf) [8, 14] was 27400 ng·h/mL, the Cmax [8, 14] was 9580 ng/mL and the Tmax [8, 14] was 40.2 min. For the same molecule, the half-life [8, 14] was 90 min, the AUC(0-t) [8, 14] was 26000 ng·h/mL and the AUC(0-inf) [8, 15] was 80000 ng·h/mL. The Cmax [8, 15] was 37000 ng/mL, the Tmax [8, 15] was 40.2 min and the half-life [8, 15] was 108 min. For the same molecule, the AUC(0-t) [8, 15] was 78900 ng·h/mL, the AUC(0-inf) [8, 16] was 57200 ng·h/mL and the Cmax [8, 16] was 22400 ng/mL. The Tmax [8, 16] was 49.8 min, the half-life [8, 16] was 138 min and the AUC(0-t) [8, 16] was 56500 ng·h/mL. For the same molecule, the “trehalose in plasma ~8 h post-dose” value ([8]; macaques, oral administration, ~8 h post-dose) was “No trehalose was measurable”.
